{"source": "patent US7780966B2", "about": "“Artificial invaplex” (The United States of America as represented by the …, priority 2007, dated 2010)", "key": {"IpaC": {"tested_on": "IpaC", "conditions": "in vivo"}, "IpaB": {"tested_on": "IpaB", "conditions": "in vivo"}}, "data": [{"substance": "ovalbumin", "values": [{"measurement": "Anti-IpaC Serum IgG (geomean endpoint titer)", "setting": "IpaC", "value": "90 ± 0"}, {"measurement": "Anti-IpaB Serum IgG (geomean endpoint titer)", "setting": "IpaB", "value": "90 ± 0"}]}]}
